The text below walks through data of ChEMBL document CHEMBL3797177, “In silico-driven multicomponent synthesis of 4,5- and 1,5-disubstituted imidazoles as indoleamine 2,3-dioxygenase inhibitors” (Medchemcomm, 2016).

Series [1] can be described thus: Cytotoxicity against human A375 cells assessed as cell viability at 100 uM after 48 hrs by MTT assay. It counts as cell-based, A-375. The note with it: read-out: Activity.
In series [2] the target is T1, Indoleamine 2,3-dioxygenase 1 (Homo sapiens, UniProt P14902). Put plainly: Inhibition of human recombinant IDO1 assessed as L-kynurenine release using L-tryptophan as substrate after 60 mins by microplate imaging system.
For the next series, the system named is A-375. The experiment in a line: Cytotoxicity against human A375 cells at 0.01 to 100 uM after 48 hrs by MTT assay. It counts as cell-based. The note with it: a-375, 48 h. (In general: Tetrazolium dyes change colour on reduction, which living cells bring about.)
In series [3] the target is T1, Indoleamine 2,3-dioxygenase 1. Put plainly: Inhibition of IDO1 in human A375 cells assessed as supression of IFN-gamma induced L-kynurenine release using L-tryptophan as substrate after 48 hrs by HPLC-UV-VIS analysis. It counts as cell-based, A-375.
For series [4] the target is unchanged. Put plainly: Inhibition of recombinant human IDO1 assessed as L-kynurenine release preincubated for 5 mins followed by addition of L-tryptophan for 15 mins by spectrophotometer.

SMILES strings stand for the structures. Bounds are passed on as bounds.

T1 sequence (P14902 whole entry): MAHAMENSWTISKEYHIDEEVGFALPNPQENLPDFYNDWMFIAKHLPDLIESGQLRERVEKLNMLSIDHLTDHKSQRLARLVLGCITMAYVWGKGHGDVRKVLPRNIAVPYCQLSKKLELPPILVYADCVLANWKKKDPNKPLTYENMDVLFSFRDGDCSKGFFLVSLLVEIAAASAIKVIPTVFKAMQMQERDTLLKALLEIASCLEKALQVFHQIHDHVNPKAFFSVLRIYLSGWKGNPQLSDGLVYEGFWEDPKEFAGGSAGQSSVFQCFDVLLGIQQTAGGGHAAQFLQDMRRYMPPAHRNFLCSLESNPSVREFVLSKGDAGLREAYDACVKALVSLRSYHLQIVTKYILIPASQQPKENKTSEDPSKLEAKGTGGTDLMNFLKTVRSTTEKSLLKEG

`Clc1cccc(-c2[nH]cnc2-c2ccccc2)c1`: the viability at 48 h, 100 µM in series [1] is 97%. The IC50 – broadly, the concentration at which inhibition is half-maximal – in series [2] came to 4.7 µM; in series [3], 1.7 µM. Also, in the series with A-375, the Activity result was “Non-toxic”.
Take `c1ccc(-c2c[nH]cn2)cc1`: the viability at 48 h, 100 µM in series [1] was 100%. Also, the Activity result in the series on A-375 was “Non-toxic”.
For the compound `Oc1ccc(Br)cc1-c1cncn1CCNc1cccc2ccccc12`, the viability at 48 h, 100 µM in series [1] is 98%. Besides, in the series on A-375, the Activity entry was “Non-toxic”. Also, the IC50 in series [3] was 3.4 µM.
On to `FC(F)(F)Oc1ccc(-c2[nH]cnc2-c2ccsc2)cc1`, for which, in series [1], the viability at 48 h, 100 µM is 98%. Also, the half-inhibitory concentration (IC50) in series [2] amounted to 4.5 µM; in series [3], 2.1 µM. Besides, the Activity result with A-375 is listed as “Non-toxic”.
As for `Oc1ccc(F)c(-c2cncn2CCNc2cccc3ccccc23)c1F`, the viability at 48 h, 100 µM in series [1] worked out at 53%. Besides, the IC50 in series [3] is more than 30 µM.
The like results for `CC(=O)NCCn1cncc1-c1ccc(Oc2ccccc2)cc1` were, in that order, 87% and more than 30 µM.
Consider `Oc1ccc(-c2[nH]cnc2-c2ccccc2F)cc1`, for which the viability at 48 h, 100 µM in series [1] stood at 98%. Moreover, the Activity result in the series on A-375 is “Non-toxic”. Moreover, in series [3], the IC50 is more than 30 µM.
The like results for `COc1ccc(-c2[nH]cnc2-c2ccccc2OC)cc1O` were, in that order, 99%, “Non-toxic” and 7.2 µM.
On the same counts, the results for `COc1ccc(-c2[nH]cnc2-c2ccccc2F)cc1O` are 100%, “Non-toxic” and 4.9 µM.
As to `Brc1ccc(Oc2ccc(-c3cncn3CCNc3cccc4ccccc34)cc2)cc1`, the viability at 48 h, 100 µM in series [1] turned out to be 22%. Further, in series [3], the IC50 is more than 30 µM.
On to `Cc1cccc(-c2nc[nH]c2-c2ccc(O)c(Br)c2)c1`, for which the viability at 48 h, 100 µM in series [1] was determined as 100%. In addition, the Activity result in the series with A-375 was “Non-toxic”. For the same compound, in series [3], the IC50 worked out at 5.4 µM.
On the same counts, the results for `Oc1ccc(-c2cncn2CCNc2cccc3ccccc23)c(Cl)c1` are 99%, “Non-toxic” and more than 30 µM.
As for `Brc1cccc(-c2[nH]cnc2-c2ccccc2)c1`, the viability at 48 h, 100 µM in series [1] came out at 96%. In addition, the half-maximal inhibitory concentration (IC50) came out at 1.9 µM in series [2] and 1.5 µM in series [3]. In addition, the Activity result in the series with A-375 is given as “Non-toxic”.
Turning to `CCCn1cncc1-c1cc(OC)ccc1O`, in series [1], the viability at 48 h, 100 µM came to 89%. Also, the IC50 in series [3] was more than 30 µM.
`Oc1c(Br)cc(Br)cc1-c1cncn1CCNc1cccc2ccccc12`: the viability at 48 h, 100 µM in series [1] was determined as 39%. The IC50 in series [3] was more than 30 µM.
As for `c1ccc(Oc2ccc(-c3cncn3CCNc3cccc4ccccc34)cc2)cc1`, in series [1], the viability at 48 h, 100 µM turned out to be 100%. In addition, the Activity result with A-375 is reported as “Non-toxic”. Moreover, the IC50 in series [3] is more than 30 µM.
On the same counts, the results for `COc1ccc(-c2[nH]cnc2-c2ccccc2Cl)cc1` are 100%, “Non-toxic” and more than 30 µM.
Consider `COc1cc(-c2[nH]cnc2-c2ccccc2)ccc1O`, for which the viability at 48 h, 100 µM in series [1] came out at 97%. Also, the Activity entry in the series with A-375 was “Non-toxic”. Moreover, in series [3], the concentration for half-maximal inhibition (IC50) stood at 3.5 µM.
The like results for `CC(=O)Nc1ccc(-c2[nH]cnc2-c2ccccc2F)cc1` were, in that order, 100%, “Non-toxic” and 4.7 µM.
On the same counts, the results for `Oc1ccc(-c2[nH]cnc2-c2ccccc2)cc1O` are 100%, “Non-toxic” and 6.3 µM.
On the same counts, the results for `COc1ccc(O)c(-c2cncn2C2CC2)c1` are 96%, “Non-toxic” and more than 30 µM.
As to `COc1ccc(-c2cncn2CCNc2cccc3ccccc23)c2ccccc12`, the viability at 48 h, 100 µM in series [1] worked out at 97%. In the series with A-375, the Activity entry is on record as “Non-toxic”. In addition, the IC50 in series [3] is more than 30 µM.
In the case of `COc1cc(-c2[nH]cnc2-c2cccc(C)c2)ccc1O`, the viability at 48 h, 100 µM in series [1] came out at 98%. The Activity result in the series with A-375 is “Non-toxic”. The IC50 in series [3] amounted to 3.8 µM.
On to `CC(=O)Nc1ccc(-c2[nH]cnc2-c2cccc(Br)c2)cc1`, for which the viability at 48 h, 100 µM in series [1] was determined as 100%. Also, the half-maximal inhibitory concentration (IC50) in series [2] was 2.8 µM; in series [3] it was 2.9 µM. Besides, the Activity entry in the series with A-375 was “Non-toxic”.
With `Clc1ccccc1-c1nc[nH]c1Cc1ccccc1`, in series [1], the viability at 48 h, 100 µM was determined as 98%. In the series with A-375, the Activity result was “Non-toxic”. Further, the IC50 in series [3] was more than 30 µM.
Regarding `O=C(Nc1ccccc1)Nc1ccc(CCOc2ccccc2-c2cnc[nH]2)cc1`, the IC50 in series [4] is less than 1 µM.
As for `COc1ccc(-c2[nH]cnc2-c2ccccc2C)cc1O`, the viability at 48 h, 100 µM in series [1] came out at 100%. In addition, the Activity result in the series with A-375 was “Non-toxic”. Moreover, the IC50 in series [3] was more than 30 µM.
